# Values of other authors as cited in article PMC6931124, “NPY1R-targeted peptide-mediated delivery of a dual PPARα/γ agonist to adipocytes enhances adipogenesis and prevents diabetes progression” (Molecular Metabolism, 2019).
# System: 12-week-old db/db mice
# Details: ref [100], cited from earlier work
# Text: In contradiction to previous tesa in vivo studies, no major improvements in hyperglycemia (serum HbA1C) and serum insulin levels were detected in the treated mice compared to the untreated animals. […] No major changes in the total serum glucose occurred and the insulin levels remained unchanged as the mice adapted to the amount of glucose in their blood. An additional ...
compound,measurement,setting,value
COc1ccc(OC(=O)N(CC(=O)O)Cc2ccc(OCCc3nc(-c4ccccc4)oc3C)cc2)cc1 [muraglitazar],"control of glucose and insulin levels, 2–4 weeks",2–4 weeks,treatment for 2–4 weeks did
same,"control of glucose and insulin levels, one week",one week,did not lead to significant effects
